The text below walks through data of patent US9901636B2, “Conjugate of a photosensitiser and chitosan and uses thereof” (PCI BIOTECH AS, priority 2012, dated 2018).

The nature of data set [1]: Fluorescence quantum yield, steady-state comparative method vs anthracene. The settings on record: DMSO at room temperature. It counts as physicochemical. The protocol: UV-Vis measurements were recorded on a Perkin-Elmer Lambda 25 UV-Vis. spectrometer equipped with a Peltier Temperature Programmer. Fluorescence emission spectra were obtained using a SPEX FluoroMax spectrometer, using a cell with spectral range 170-2200 nm (Spectrocell Corporation, Oreland, Pa., USA). Absorption spectra were recorded at 20° C. and fluorescence emission spectra were recorded at ambient temperature, using quartz cuvette with a 10 mm path length. All the fluorescence spectra were recorded with constant slit widths, 1 nm for excitation and 1 nm for emission and fluorescence spectra were averaged over three scans for quantum yield study. However, for FIG. 5 (III) fluorescence spectra were obtained with slit widths 3 nm for excitation and 3 nm for emission.
Fluorescence quantum yields of compounds 3, 5, 16A-19B (all excited at Δex.=λmax=419 nm) were determined relative to a dilute solution of standard anthracene (φF=0.27, λex=365.5 nm) in absolute ethanol by using the steady-state comparative method. using the following equation: φX=φST(GradX/GradST)(ηS^2,ηST^2) where, the subscripts ST and X denote standard and test respectively, φ is the fluorescence quantum yield, Grad the gradient from the plot of integrated fluorescence intensity versus absorbance, and η the refractive index of the solvent.

A short description of data set [2]: Partitioning in aqueous:CHCl3 two-phase system. It is filed as physicochemical. The settings on record: two-phase H2O/CHCl3 system (FIG. 6). From the text:
(A) TPP(p-NH2)13 (B) TPPNH-Pip 5 (C) TPPp0.25-CS-TMA0.75 17A (D) TPPp0.25-CS-MP0.75 19A. Aqueous phases are shown on top.
In the ^1H NMR spectra of final compound TPPp0.1-CS-MP0.9 18A all peaks of the chitosan backbone along with the 1-methyl piperazine peaks can be clearly identified; however there is no observable NMR signal of the TPP moiety (FIG. 5E). […] In d6-DMSO the TPP peaks could be observed but in this case the chitosan backbone peaks were broadened and not clearly identifiable. […] The TPPp0.1-CS-MP0.9 18A has a dark red color confirming the presence of the PS.

The conditions of data set [3]: Bhaumik et al., excited at 418 nm in DMF, TPP as standard; cited from earlier work.
The mark [4] stands for this setting: Table 4, λabs 420 nm, λem 653 nm.
The mark [5] stands for this setting: Table 2, excited at 419 nm, standard anthracene.

Turning to “5-(4-Carboxyphenyl)-10,15,20-triphenylchlorin [Compound 26]”, the “Quantum Yield (φF)” value in data set [1] (setting [4]) is 0.01331.

Regarding `Nc1ccc(-c2c3nc(c(-c4ccccc4)c4ccc([nH]4)c(-c4ccccc4)c4nc(c(-c5ccccc5)c5ccc2[nH]5)C=C4)CC3)cc1` [Compound 20, 5-(4-Aminophenyl)-10,15,20-triphenylchlorin], the “Quantum Yield (φF)” value in data set [1] (setting [4]) stood at 0.00246.

With `O=C(CN1CCNCC1)Nc1ccc(-c2c3nc(c(-c4ccccc4)c4ccc([nH]4)c(-c4ccccc4)c4nc(c(-c5ccccc5)c5ccc2[nH]5)C=C4)C=C3)cc1` [Compound 5, 5-(4α-Piperazineacetylamidophenyl)-10,15,20-triphenylporphyrin], in data set [2], the “Partitioning between aqueous and organic phase” value is reported as “did not partition into the aqueous phase”. Also, in data set [1] (setting [5]), the “Quantum Yield (φF)” value is given as 0.0036. On to `Nc1ccc(-c2c3nc(c(-c4ccccc4)c4ccc([nH]4)c(-c4ccccc4)c4nc(c(-c5ccccc5)c5ccc2[nH]5)C=C4)C=C3)cc1` [Compound 3, 5-(4-Aminophenyl)-10,15,20-triphenylporphyrin, reference compound], for which, in data set [2], the “Partitioning between aqueous and organic phase” value is reported as “did not partition into the aqueous phase”. Further, in data set [3], the “Fluorescence quantum yield (φF), literature value” is recorded as 0.05. Besides, the “Quantum Yield (φF)” value in data set [1] (setting [5]) is on record as 0.0002.
